Laboratory results published in article PMC10733463, “Berberine-microbiota interplay: orchestrating gut health through modulation of the gut microbiota and metabolic transformation into bioactive metabolites” (Frontiers in Pharmacology, 2023).

Key:
caecal microbiota = test: SCFA quantification (GC-FID) in caecal contents of chickens; format: in vivo, Ross 308 broiler chickens; details: high dose (1 g berberine/kg feed), 21 days; p = 0.045
Method: 250 mg caecal content derived from the in vivo trial were weighed and diluted 1:20 for SCFA analysis. Acetate, propionate and butyrate were quantified using the GC-FID method described by ([De […] et al., 2010]). This method involves the extraction of SCFA from samples with diethyl ether after the addition of 2-methyl hexanoic acid as an internal standard.

ileal microbiota = test: 16S rRNA gene sequencing, microbiota composition in the ileum; format: in vivo, Ross 308 broiler chickens
duodenum = test: Intestinal morphology (villus length, crypt depth) in the duodenum; format: in vivo, Ross 308 broiler chickens; details: 21 days
Text: The study was undertaken following the guidelines of the ethics committee of the Faculty of Veterinary Medicine and Bioscience Engineering, Ghent University, in accordance with the EU Directive 2010/63/EU. […] They were allotted into 4 groups, with three replicate pens per group each housing 8 chickens. The animals were not vaccinated. Water and commercial starter feed (day 1-12, FARM 1 Mash, Country's Best, […], Belgium) or grower (day 13-21, FARM 2 mash, Country's Best, […], Belgium) were provided ad libitum. […] At day 21, 4 birds per pen were weighted then euthanized by sodium pentobarbital injection for sampling. […] Additionally, ileal and caecal content samples were collected and stored at -20°C for berberine and berberine-derived metabolite quantification. […] 24 h formalin-fixed duodenal intestinal tissue segments were embedded in paraffin wax and sectioned at 5 μm, followed by haematoxylin and eosin staining. Villus length and crypt depth were assessed using a PC-based image analysis system (Leica Application Suite V4, LAS V4.; Leica, Diegem Belgium).

[1] = tested on: Blautia spp., A. butyraticus, E. limosum; test: Growth of bacteria in presence of increasing concentrations of berberine; format: cell-based; details: 10 μg/mL berberine, M2GSC, anaerobic
Text: Samples were collected and processed as described before.
Supplementary Figure S1 – Growth of bacteria in presence of increasing concentrations of berberine in M2GSC medium (μg/mL) under anaerobic conditions. Strains were further tested for their ability to metabolize berberine (Figure 14). Strains were selected according to OTUs which relative abundance was positively correlated to berberrubine or thalifendine levels, including Blautia spp. and A. butyraticus. E. limosum was included as it was expected to demethylate berberine due to previous literature (Possemiers et al., 2008; Rich et al., 2022). Overnight cultures were 1:1000 diluted in M2GSC medium supplemented with 0, 1, 10 or 100 µg/mL berberine and grown for 24 hours under anaerobic conditions. Absorbance data at 600 nm are expressed as the mean ± standard deviation (n = 3). *: p < 0.05; ***: p < 0.001.

[2] = 0.1 g berberine/kg feed vs normal diet, 21 days, LinDA-normalized abundance
[3] = 0.1 g berberine/kg feed, 21 days
[4] = 0.5 g berberine/kg feed vs normal diet, 21 days, LinDA-normalized abundance
[5] = 0.5 g berberine/kg feed, 21 days
[6] = 1 g berberine/kg feed vs normal diet, 21 days, LinDA-normalized abundance

COc1ccc2cc3[n+](cc2c1OC)CCc1cc2c(cc1-3)OCO2 [Berberine, Berberine chloride]
Propionate in the caecum (GC-FID) (caecal microbiota): significantly increased
L2 FC Cronobacter, 0.1 vs 0 (ileal microbiota; [2]): 0.38
L2 FC Curtobacterium, 0.1 vs 0 (ileal microbiota; [2]): -0.49
L2 FC Faecalibacterium, 0.1 vs 0 (ileal microbiota; [2]): 1.89
L2 FC Family_ Peptostreptococcaceae, 0.1 vs 0 (ileal microbiota; [2]): 2.07
L2 FC Glutamicibacter, 0.1 vs 0 (ileal microbiota; [2]): 0.33
L2 FC Lachnoclostridium 5, 0.1 vs 0 (ileal microbiota; [2]): 0.40
L2 FC Ralstonia, 0.1 vs 0 (ileal microbiota; [2]): -0.96
L2 FC Romboutsia, 0.1 vs 0 (ileal microbiota; [2]): 2.23
L2 FC Serratia, 0.1 vs 0 (ileal microbiota; [2]): 0.03
L2 FC Tyzzerella, 0.1 vs 0 (ileal microbiota; [2]): 0.06
L2 FC uncultured genus of Mollicutes RF39, 0.1 vs 0 (ileal microbiota; [2]): 0.63
L2 FC uncultured genus of Peptostreptococcaceae, 0.1 vs 0 (ileal microbiota; [2]): 1.99
Mean relative abundance (%) Cronobacter (ileal microbiota; [3]): 0.00%
Mean relative abundance (%) Curtobacterium (ileal microbiota; [3]): 0.01%
Mean relative abundance (%) Faecalibacterium (ileal microbiota; [3]): 0.02%
Mean relative abundance (%) Family_ Peptostreptococcaceae (ileal microbiota; [3]): 0.37%
Mean relative abundance (%) Glutamicibacter (ileal microbiota; [3]): 0.01%
Mean relative abundance (%) Lachnoclostridium 5 (ileal microbiota; [3]): 0.00%
Mean relative abundance (%) Ralstonia (ileal microbiota; [3]): 0.04%
Mean relative abundance (%) Romboutsia (ileal microbiota; [3]): 0.24%
Mean relative abundance (%) Serratia (ileal microbiota; [3]): 0.00%
Mean relative abundance (%) Tyzzerella (ileal microbiota; [3]): 0.00%
Mean relative abundance (%) uncultured genus of Mollicutes RF39 (ileal microbiota; [3]): 0.00%
Mean relative abundance (%) uncultured genus of Peptostreptococcaceae (ileal microbiota; [3]): 38.50%
Mean relative abundance of Lachnospiraceae (ileal microbiota; [3]): 2.54%
Mean relative abundance of Peptostreptococcaceae (ileal microbiota; [3]): 39.1%
Mean relative abundance of Ruminococcaceae (ileal microbiota; [3]): 1.35%
L2FC of LinDA-normalized abundance of Lachnospiraceae (ileal microbiota; 0.1 vs 0 g berberine/kg feed): -0.49
L2FC of LinDA-normalized abundance of Peptostreptococcaceae (ileal microbiota; 0.1 vs 0 g berberine/kg feed): 1.55
L2FC of LinDA-normalized abundance of Ruminococcaceae (ileal microbiota; 0.1 vs 0 g berberine/kg feed): 0.41
L2 FC Cronobacter, 0.5 vs 0 (ileal microbiota; [4]): -0.95
L2 FC Curtobacterium, 0.5 vs 0 (ileal microbiota; [4]): -1.50
L2 FC Faecalibacterium, 0.5 vs 0 (ileal microbiota; [4]): 1.01
L2 FC Family_ Peptostreptococcaceae, 0.5 vs 0 (ileal microbiota; [4]): -0.52
L2 FC Glutamicibacter, 0.5 vs 0 (ileal microbiota; [4]): -0.49
L2 FC Lachnoclostridium 5, 0.5 vs 0 (ileal microbiota; [4]): -0.09
L2 FC Ralstonia, 0.5 vs 0 (ileal microbiota; [4]): -1.95
L2 FC Romboutsia, 0.5 vs 0 (ileal microbiota; [4]): -0.07
L2 FC Serratia, 0.5 vs 0 (ileal microbiota; [4]): -0.80
L2 FC Tyzzerella, 0.5 vs 0 (ileal microbiota; [4]): -0.72
L2 FC uncultured genus of Mollicutes RF39, 0.5 vs 0 (ileal microbiota; [4]): 0.65
L2 FC uncultured genus of Peptostreptococcaceae, 0.5 vs 0 (ileal microbiota; [4]): -0.24
Mean relative abundance (%) Cronobacter (ileal microbiota; [5]): 0.00%
Mean relative abundance (%) Curtobacterium (ileal microbiota; [5]): 0.02%
Mean relative abundance (%) Faecalibacterium (ileal microbiota; [5]): 0.02%
Mean relative abundance (%) Family_ Peptostreptococcaceae (ileal microbiota; [5]): 0.15%
Mean relative abundance (%) Glutamicibacter (ileal microbiota; [5]): 0.01%
Mean relative abundance (%) Lachnoclostridium 5 (ileal microbiota; [5]): 0.02%
Mean relative abundance (%) Ralstonia (ileal microbiota; [5]): 0.05%
Mean relative abundance (%) Romboutsia (ileal microbiota; [5]): 0.13%
Mean relative abundance (%) Serratia (ileal microbiota; [5]): 0.00%
Mean relative abundance (%) Tyzzerella (ileal microbiota; [5]): 0.00%
Mean relative abundance (%) uncultured genus of Mollicutes RF39 (ileal microbiota; [5]): 0.02%
Mean relative abundance (%) uncultured genus of Peptostreptococcaceae (ileal microbiota; [5]): 24.63%
Mean relative abundance of Lachnospiraceae (ileal microbiota; [5]): 14.77%
Mean relative abundance of Peptostreptococcaceae (ileal microbiota; [5]): 24.91%
Mean relative abundance of Ruminococcaceae (ileal microbiota; [5]): 6.11%
L2FC of LinDA-normalized abundance of Lachnospiraceae (ileal microbiota; 0.5 vs 0 g berberine/kg feed): -0.17
L2FC of LinDA-normalized abundance of Peptostreptococcaceae (ileal microbiota; 0.5 vs 0 g berberine/kg feed): -0.50
L2FC of LinDA-normalized abundance of Ruminococcaceae (ileal microbiota; 0.5 vs 0 g berberine/kg feed): 0.24
L2 FC Cronobacter, 1 vs 0 (ileal microbiota; [6]): -3.64
L2 FC Curtobacterium, 1 vs 0 (ileal microbiota; [6]): -2.66
L2 FC Faecalibacterium, 1 vs 0 (ileal microbiota; [6]): -2.86
L2 FC Family_ Peptostreptococcaceae, 1 vs 0 (ileal microbiota; [6]): -7.51
L2 FC Glutamicibacter, 1 vs 0 (ileal microbiota; [6]): -2.76
L2 FC Lachnoclostridium 5, 1 vs 0 (ileal microbiota; [6]): -3.40
L2 FC Ralstonia, 1 vs 0 (ileal microbiota; [6]): -5.90
L2 FC Romboutsia, 1 vs 0 (ileal microbiota; [6]): -6.95
L2 FC Serratia, 1 vs 0 (ileal microbiota; [6]): -3.49
L2 FC Tyzzerella, 1 vs 0 (ileal microbiota; [6]): -2.59
L2 FC uncultured genus of Mollicutes RF39, 1 vs 0 (ileal microbiota; [6]): -3.09
L2 FC uncultured genus of Peptostreptococcaceae, 1 vs 0 (ileal microbiota; [6]): -9.51
Mean relative abundance (%) Cronobacter (ileal microbiota; 1 g berberine/kg feed, 21 days): 0.00%
Mean relative abundance (%) Curtobacterium (ileal microbiota; 1 g berberine/kg feed, 21 days): 0.03%
Mean relative abundance (%) Faecalibacterium (ileal microbiota; 1 g berberine/kg feed, 21 days): 0.01%
Mean relative abundance (%) Family_ Peptostreptococcaceae (ileal microbiota; 1 g berberine/kg feed, 21 days): 0.01%
Mean relative abundance (%) Glutamicibacter (ileal microbiota; 1 g berberine/kg feed, 21 days): 0.01%
Mean relative abundance (%) Lachnoclostridium 5 (ileal microbiota; 1 g berberine/kg feed, 21 days): 0.00%
Mean relative abundance (%) Ralstonia (ileal microbiota; 1 g berberine/kg feed, 21 days): 0.37%
Mean relative abundance (%) Romboutsia (ileal microbiota; 1 g berberine/kg feed, 21 days): 0.01%
Mean relative abundance (%) Serratia (ileal microbiota; 1 g berberine/kg feed, 21 days): 0.00%
Mean relative abundance (%) Tyzzerella (ileal microbiota; 1 g berberine/kg feed, 21 days): 0.01%
Mean relative abundance (%) uncultured genus of Mollicutes RF39 (ileal microbiota; 1 g berberine/kg feed, 21 days): 0.00%
Mean relative abundance (%) uncultured genus of Peptostreptococcaceae (ileal microbiota; 1 g berberine/kg feed, 21 days): 0.72%
Mean relative abundance of Lachnospiraceae (ileal microbiota; 1 g berberine/kg feed, 21 days): 26.87%
Mean relative abundance of Peptostreptococcaceae (ileal microbiota; 1 g berberine/kg feed, 21 days): 0.73%
Mean relative abundance of Ruminococcaceae (ileal microbiota; 1 g berberine/kg feed, 21 days): 8.08%
L2FC of LinDA-normalized abundance of Lachnospiraceae (ileal microbiota; 1 vs 0 g berberine/kg feed): 2.99
L2FC of LinDA-normalized abundance of Peptostreptococcaceae (ileal microbiota; 1 vs 0 g berberine/kg feed): -6.91
L2FC of LinDA-normalized abundance of Ruminococcaceae (ileal microbiota; 1 vs 0 g berberine/kg feed): 3.41
Estimated microbial diversity (Shannon index) (ileal microbiota; highest concentration (1 g/kg feed), p = 0.045): significantly increased
Abundance of phylum Tenericutes (ileal microbiota; lowest concentration (0.1 g/kg feed)): increase
Crypt depth (duodenum; 0.1 g berberine/kg feed): 114 ± 21 µm
Villus length (duodenum; 0.1 g berberine/kg feed): 1,678 ± 101 µm
Villus to crypt ratio (duodenum; 0.1 g berberine/kg feed): 15.30 ± 2.50
Crypt depth (duodenum; 0.5 g berberine/kg feed): 104 ± 15 µm
Villus length (duodenum; 0.5 g berberine/kg feed): 1,815 ± 148 µm
Villus to crypt ratio (duodenum; 0.5 g berberine/kg feed): 17.98 ± 2.53
Crypt depth (duodenum; 1 g berberine/kg feed): 103 ± 17 µm
Villus length (duodenum; 1 g berberine/kg feed): 1,820 ± 150 µm
Villus to crypt ratio (duodenum; 1 g berberine/kg feed): 18.31 ± 3.21
Growth of the tested bacteria [1]: not significantly affected
